{"source": "patent EP3184514A1", "about": "“AUTOPHAGY INHIBITORS” (Deutsches Krebsforschungszentrum, priority 2015, dated 2017)", "key": {"LC3B [1]": {"system": "LC3B", "assay": "NMR titration (1H-15N HSQC, chemical shift perturbations)", "format": "binding", "settings": "10 fold excess of compound, before prolonged incubation"}, "LC3B [2]": {"system": "LC3B", "assay": "cellular autophagy screening: LC3B spots by immunocytochemistry and automated confocal imaging", "format": "cell-based", "settings": "Table 1-a; relative to negative DMSO control; 100 µM, 1 hour; n.e. means no effect", "experimental": "For screening purposes, cells were seeded in 384 well plates and left over night for attachment.\nAfterwards, medium was removed and 4 % (w/v) paraformaldehyde (PFA) in PBS buffer was added to the cells for 20 minutes, incubated at room temperature. Cells were permeabilized with 0.1 % (v/v) Triton X-100 for 10 min at room temperature and washed with PBS. Cells were blocked with 3 % (w/v) bovine serum albumin (BSA) in PBS for 45 minutes at 37 °C and then incubated with anti-LC3B (PM036, MBL) or anti-p62 (PM045 or M162-3, MBL) primary antibody diluted in 0.3 % BSA (1:2000 or 1:500) for 1.5-2 hours at 37 °C. Cells were washed three times with PBS.\n384 well plates were then analyzed with an automated confocal microscope Opera (PerkinElmer) enabling high throughput high content screening image analysis. […] A water immersion 60x objective was used for optical slicing and stacking (5x0.5 µm stacks). […] Signal was detected with a fast gated CCD camera. Acapella software (PerkinElmer) is an algorithm based high content imaging and analysis software used in multi-parametric multiplex assays. Acapella was used to follow cell viability (i.e. number of cells) and the number of LC3B and p62 spots per cell.\nThe LC3B protein is a ubiquitin-like protein that can be conjugated to phosphatidylethanolamine (PE) in the membrane of the incipient autophagosome. The nonlipidated and lipidated forms are usually referred to as LC3B-I and LC3B-II, respectively. […] Autophagic flux is often inferred on the basis of LC3B-II turnover, measured by western blot (WB) or immunofluorescence (IF) in the presence and absence of lysosomal degradation. […] Lysosomal degradation can be prevented e.g. through the use of compounds that neutralize the lysosomal pH such as Bafilomycin A1 (BafA1) or chloroquine (CQ). […] An additive or supra-additive effect in LC3B-II levels (WB) and LC3B-positive punctae numbers (IF) may indicate that the treatment enhances autophagic flux. […] This assay can be complemented by simultaneous monitoring of autophagosomal substrates or autophagosomal substrate receptors (e.g. SQSTM1/p62) by WB and/or IF. For example, an increase in LC3B-II levels in combination with the accumulation of SQSTM1/p62 is indicative of a blockage of the autophagy pathway at terminal stages."}, "U2OS cells": {"system": "U2OS cells", "assay": "autophagic flux by confocal microscopy and western blotting", "format": "cell-based, Human", "experimental": "[…]. After harvesting, cells were lysed with radioimmunoprecipitation assay (RIPA) buffer (50 mM Tris-HCl, pH 7.5, 150 mM NaCl, 0.5 % deoxycholate, 1 % Triton X-100, 0.1 % SDS and 1x protease inhibitors) and left on ice for 30 minutes. Cell lysates were clarified by centrifugation at 10000xg for 20 min at 4 °C. Protein concentrations of the supernatants were determined by BCA assay and the absorbance was measured at 562 nm. SDS-PAGE and WB was performed.\nFor screening purposes, cells were seeded in 384 well plates and left over night for attachment. […]. For controls, cells were treated with 250 nM torin and/or 100 nM BafA1 for 2 hours.\n(§1) Afterwards, medium was removed and 4 % (w/v) paraformaldehyde (PFA) in PBS buffer was added to the cells for 20 minutes, incubated at room temperature. Cells were permeabilized with 0.1 % (v/v) Triton X-100 for 10 min at room temperature and washed with PBS. Cells were blocked with 3 % (w/v) bovine serum albumin (BSA) in PBS for 45 minutes at 37 °C and then incubated with anti-LC3B (PM036, MBL) or anti-p62 (PM045 or M162-3, MBL) primary antibody diluted in 0.3 % BSA (1:2000 or 1:500) for 1.5-2 hours at 37 °C. Cells were washed three times with PBS. Secondary Alexa Fluor 488 - labeled antibodies (A-11008, Invitrogen) were diluted in 0.3 % BSA (1:2500) and incubated on cells for 15 minutes at 37 °C. Cells were washed once with PBS, incubated with DRAQ5 (#4084, Cell Signaling) diluted in PBS (1:5000) for 10 minutes and washed three times with PBS.\n384 well plates were then analyzed with an automated confocal microscope Opera (PerkinElmer) enabling high throughput high content screening image analysis. […] Signal was detected with a fast gated CCD camera. […]\nThe LC3B protein is a ubiquitin-like protein that can be conjugated to phosphatidylethanolamine (PE) in the membrane of the incipient autophagosome. […] Autophagic flux is often inferred on the basis of LC3B-II turnover, measured by western blot (WB) or immunofluorescence (IF) in the presence and absence of lysosomal degradation. […]"}, "PANC1, HCT116, A549": {"system": "PANC1, HCT116, A549", "assay": "LC3B and p62 spots in autophagy-dependent cancer cell lines", "format": "cell-based", "settings": "1 hr, 100 µM; all three cell lines", "experimental": "For screening purposes, cells were seeded in 384 well plates and left over night for attachment. […] For controls, cells were treated with 250 nM torin and/or 100 nM BafA1 for 2 hours.\nas §1\n384 well plates were then analyzed with an automated confocal microscope Opera (PerkinElmer) enabling high throughput high content screening image analysis. Confocal images were taken at the Institute of Biochemistry II, Goethe University Medical School, Theodor-Stern-Kai 7, 60590 Frankfurt am Main, Germany. […] Signal was detected with a fast gated CCD camera. […]"}}}
{"smiles": "Brc1ccc(CSC2=NCN(Cc3cccnc3)CN2)cc1", "note": "[Compound I-1, 6-((4-bromobenzyl)thio)-3-(pyridin-3-ylmethyl)-1,2,3,4-tetrahydro-1,3,5-triazine]", "values": [{"measurement": "chemical shift perturbations (CSP) of LC3B", "setting": "LC3B [1]", "result": "does not induce any significant CSPs"}, {"measurement": "LC3B inhibition cell based Fold increase of LC3B spots [DMSO control 1.0]", "setting": "LC3B [2]", "result": 4.9}, {"measurement": "numbers of LC3B spots and levels of LC3B-II", "setting": "U2OS cells; 100 µM compound together with BafA1 100 nM, compared with single treatment", "result": "did not increased further"}, {"measurement": "amount of LC3B-II protein and LC3B spots", "setting": "U2OS cells; 100 µM, 1 hr", "result": "increased"}, {"measurement": "number of LC3B and p62 spots", "setting": "PANC1, HCT116, A549", "result": "increased"}]}
